Assay results: a compilation of properties of binary mixtures (doi:10.1016/j.molliq.2021.118200)

Assay: xn = mol fraction of the nth substance listed
Details: 100 kPa

## CC(=O)[O-].COCCn1cc[n+](C)c1 + O
288.15 K, x1 = 0.8396
  electrical conductivity: 0.351 S/m
  viscosity: 74.3 mPa·s
288.15 K, x1 = 0.8663
  electrical conductivity: 0.313 S/m
  viscosity: 76.6 mPa·s
288.15 K, x1 = 0.8945
  electrical conductivity: 0.278 S/m
  viscosity: 78.6 mPa·s
288.15 K, x1 = 0.9225
  electrical conductivity: 0.244 S/m
  viscosity: 80.4 mPa·s
288.15 K, x1 = 0.9511
  electrical conductivity: 0.215 S/m
  viscosity: 82.1 mPa·s
288.15 K, x1 = 1
  electrical conductivity: 0.162 S/m
  viscosity: 85.1 mPa·s
293.15 K, x1 = 0.8663
  electrical conductivity: 0.373 S/m
  viscosity: 56.95 mPa·s
293.15 K, x1 = 0.9225
  electrical conductivity: 0.3 S/m
  viscosity: 60.54 mPa·s
293.15 K, x1 = 0.9511
  electrical conductivity: 0.268 S/m
  viscosity: 62.23 mPa·s
293.15 K, x1 = 1
  electrical conductivity: 0.215 S/m
  viscosity: 65.09 mPa·s
298.15 K, x1 = 0.8396
  electrical conductivity: 0.476 S/m
  viscosity: 41.38 mPa·s
298.15 K, x1 = 0.8663
  electrical conductivity: 0.437 S/m
  viscosity: 43.06 mPa·s
298.15 K, x1 = 0.8945
  electrical conductivity: 0.405 S/m
  viscosity: 44.51 mPa·s
298.15 K, x1 = 0.9225
  electrical conductivity: 0.371 S/m
  viscosity: 45.75 mPa·s
298.15 K, x1 = 0.9511
  electrical conductivity: 0.342 S/m
  viscosity: 46.93 mPa·s
298.15 K, x1 = 1
  electrical conductivity: 0.29 S/m
  viscosity: 49.12 mPa·s
303.15 K, x1 = 0.8396
  electrical conductivity: 0.564 S/m
  viscosity: 28.47 mPa·s
303.15 K, x1 = 0.8663
  electrical conductivity: 0.529 S/m
303.15 K, x1 = 0.9225
  electrical conductivity: 0.466 S/m
  viscosity: 34.3 mPa·s
303.15 K, x1 = 0.9511
  electrical conductivity: 0.439 S/m
  viscosity: 35.83 mPa·s
303.15 K, x1 = 1
  electrical conductivity: 0.39 S/m
  viscosity: 38.77 mPa·s
308.15 K, x1 = 0.8396
  electrical conductivity: 0.673 S/m
  viscosity: 24.95 mPa·s
308.15 K, x1 = 0.8945
  electrical conductivity: 0.604 S/m
  viscosity: 26.78 mPa·s
308.15 K, x1 = 0.9225
  electrical conductivity: 0.572 S/m
  viscosity: 27.6 mPa·s
308.15 K, x1 = 0.9511
  electrical conductivity: 0.541 S/m
  viscosity: 28.32 mPa·s
308.15 K, x1 = 1
  electrical conductivity: 0.491 S/m
  viscosity: 29.64 mPa·s
313.15 K, x1 = 0.8396
  electrical conductivity: 0.807 S/m
  viscosity: 20.97 mPa·s
313.15 K, x1 = 0.8663
  electrical conductivity: 0.773 S/m
  viscosity: 21.65 mPa·s
313.15 K, x1 = 0.8945
  electrical conductivity: 0.733 S/m
  viscosity: 22.3 mPa·s
313.15 K, x1 = 0.9225
  electrical conductivity: 0.698 S/m
  viscosity: 22.87 mPa·s
313.15 K, x1 = 0.9511
  electrical conductivity: 0.666 S/m
  viscosity: 23.4 mPa·s
313.15 K, x1 = 1
  electrical conductivity: 0.611 S/m
  viscosity: 24.35 mPa·s
318.15 K, x1 = 0.8396
  electrical conductivity: 0.963 S/m
  viscosity: 17.28 mPa·s
318.15 K, x1 = 0.8945
  electrical conductivity: 0.886 S/m
  viscosity: 18.26 mPa·s
318.15 K, x1 = 0.9225
  electrical conductivity: 0.851 S/m
  viscosity: 18.74 mPa·s
318.15 K, x1 = 0.9511
  electrical conductivity: 0.814 S/m
  viscosity: 19.18 mPa·s
318.15 K, x1 = 1
  electrical conductivity: 0.759 S/m
  viscosity: 19.91 mPa·s

## CCC(=O)[O-].COCCn1cc[n+](C)c1 + O
288.15 K, x1 = 0.8582
  electrical conductivity: 0.278 S/m
  viscosity: 88.4 mPa·s
288.15 K, x1 = 0.9175
  electrical conductivity: 0.201 S/m
  viscosity: 104.5 mPa·s
288.15 K, x1 = 0.9479
  electrical conductivity: 0.169 S/m
  viscosity: 113.9 mPa·s
293.15 K, x1 = 0.8302
  electrical conductivity: 0.362 S/m
  viscosity: 61.46 mPa·s
293.15 K, x1 = 0.8582
  electrical conductivity: 0.324 S/m
  viscosity: 66.3 mPa·s
293.15 K, x1 = 0.8879
  electrical conductivity: 0.289 S/m
  viscosity: 72.1 mPa·s
293.15 K, x1 = 0.9175
  electrical conductivity: 0.254 S/m
  viscosity: 78.1 mPa·s
293.15 K, x1 = 1
  electrical conductivity: 0.166 S/m
  viscosity: 93.3 mPa·s
298.15 K, x1 = 0.8582
  electrical conductivity: 0.387 S/m
  viscosity: 50.5 mPa·s
298.15 K, x1 = 0.8879
  electrical conductivity: 0.352 S/m
  viscosity: 54.67 mPa·s
298.15 K, x1 = 0.9175
  electrical conductivity: 0.315 S/m
  viscosity: 59.23 mPa·s
303.15 K, x1 = 0.8302
  electrical conductivity: 0.523 S/m
  viscosity: 37.29 mPa·s
303.15 K, x1 = 0.8879
  electrical conductivity: 0.448 S/m
  viscosity: 42.96 mPa·s
303.15 K, x1 = 0.9175
  electrical conductivity: 0.411 S/m
  viscosity: 46.22 mPa·s
303.15 K, x1 = 0.9479
  electrical conductivity: 0.378 S/m
  viscosity: 49.63 mPa·s
303.15 K, x1 = 1
  electrical conductivity: 0.32 S/m
  viscosity: 54.2 mPa·s
308.15 K, x1 = 0.8302
  electrical conductivity: 0.625 S/m
  viscosity: 29.69 mPa·s
308.15 K, x1 = 0.8582
  electrical conductivity: 0.584 S/m
  viscosity: 31.71 mPa·s
308.15 K, x1 = 0.8879
  electrical conductivity: 0.548 S/m
  viscosity: 33.88 mPa·s
308.15 K, x1 = 0.9175
  electrical conductivity: 0.511 S/m
  viscosity: 36.42 mPa·s
308.15 K, x1 = 0.9479
  electrical conductivity: 0.479 S/m
  viscosity: 39.09 mPa·s
308.15 K, x1 = 1
  electrical conductivity: 0.42 S/m
  viscosity: 42.49 mPa·s
313.15 K, x1 = 0.8302
  electrical conductivity: 0.724 S/m
  viscosity: 24.42 mPa·s
313.15 K, x1 = 0.8582
  electrical conductivity: 0.687 S/m
  viscosity: 25.86 mPa·s
313.15 K, x1 = 0.8879
  electrical conductivity: 0.653 S/m
  viscosity: 27.57 mPa·s
313.15 K, x1 = 0.9175
  electrical conductivity: 0.616 S/m
  viscosity: 29.53 mPa·s
313.15 K, x1 = 1
  electrical conductivity: 0.532 S/m
  viscosity: 33.96 mPa·s
318.15 K, x1 = 0.8302
  electrical conductivity: 0.881 S/m
  viscosity: 18.8 mPa·s
318.15 K, x1 = 0.8879
  electrical conductivity: 0.799 S/m
  viscosity: 21.28 mPa·s
318.15 K, x1 = 0.9175
  electrical conductivity: 0.759 S/m
  viscosity: 22.93 mPa·s
318.15 K, x1 = 1
  electrical conductivity: 0.663 S/m
  viscosity: 26.51 mPa·s
